Results published in patent US10894784B2, “Heteroarylbenzimidazole compounds” (BAYER PHARMA AKTIENGESELLSCHAFT, priority 2015, dated 2021).

Molecular target: TBK1 (Homo sapiens (Human), UniProt Q9UHD2)
Test: TBK1 low ATP kinase assay (in vitro assay 1)
Assay type: biochemical
Conditions: in vitro assay 1, read-out: TBK1 low ATP kinase assay IC50

Sequence of TBK1 (Q9UHD2 whole entry): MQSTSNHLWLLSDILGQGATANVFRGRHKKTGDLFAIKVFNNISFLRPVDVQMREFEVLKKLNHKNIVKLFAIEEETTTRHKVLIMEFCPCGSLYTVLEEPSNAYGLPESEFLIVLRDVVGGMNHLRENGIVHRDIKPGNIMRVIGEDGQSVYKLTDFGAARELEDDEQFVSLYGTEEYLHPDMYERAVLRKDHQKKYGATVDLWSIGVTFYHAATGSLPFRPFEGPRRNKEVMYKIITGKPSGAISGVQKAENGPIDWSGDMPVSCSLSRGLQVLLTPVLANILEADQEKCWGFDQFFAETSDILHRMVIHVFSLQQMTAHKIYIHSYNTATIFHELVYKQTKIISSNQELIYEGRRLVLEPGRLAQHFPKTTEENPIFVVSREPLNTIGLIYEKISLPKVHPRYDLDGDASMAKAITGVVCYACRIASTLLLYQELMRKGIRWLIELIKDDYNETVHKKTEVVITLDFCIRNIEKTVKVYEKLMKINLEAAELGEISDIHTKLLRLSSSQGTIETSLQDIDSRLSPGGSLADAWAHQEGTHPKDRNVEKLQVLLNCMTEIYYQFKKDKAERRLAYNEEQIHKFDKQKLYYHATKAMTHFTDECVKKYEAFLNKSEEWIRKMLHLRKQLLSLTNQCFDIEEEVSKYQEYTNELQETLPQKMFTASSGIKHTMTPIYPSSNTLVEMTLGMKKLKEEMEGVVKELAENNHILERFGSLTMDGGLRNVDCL

Row | IC50 | SMILES
1 | 20.5 nM | CC(c1ccnc(Nc2nc3ccc(-c4cc(OCC(F)(F)C(F)(F)F)ncn4)cc3[nH]2)c1)N1CCN(C(=O)CC(F)(F)F)CC1 (single isomer, unassigned) [Example 166.02, 3,3,3-trifluoro-1-(4-{(1R or 1S)-1-[2-({6-[6-(2,2,3,3,3-pentafluoropropoxy)pyrimidin-4-yl]-1H-benzimidazol-2-yl}amino)pyridin-4-yl]ethyl}piperazin-1-yl)propan-1-one]
2 | 21.1 nM | CC(c1ccnc(Nc2nc3ccc(-c4cc(OCC(F)(F)C(F)(F)F)ncn4)cc3[nH]2)c1)N1CCN(C(=O)C2CC2)CC1 (single isomer, unassigned) [Example 166.03, cyclopropyl(4-{(1R or 1S)-1-[2-({6-[6-(2,2,3,3,3-pentafluoropropoxy)pyrimidin-4-yl]-1H-benzimidazol-2-yl}amino)pyridin-4-yl]ethyl}piperazin-1-yl)methanone]
3 | 54.2 nM | CC(c1ccnc(Nc2nc3ccc(-c4cc(OCC(F)(F)C(F)(F)F)ncn4)cc3[nH]2)c1)N1CCN(C(=O)C2(C(F)(F)F)CC2)CC1 (single isomer, unassigned) [Example 166.04, (4-{(1R or 1S)-1[2-({6-[6-(2,2,3,3,3-pentafluoropropoxy)pyrimidin-4-yl]-1H-benzimidazol-2-yl}amino)pyridin-4-yl]ethyl}piperazin-1-yl)[1-(trifluoromethyl)cyclopropyl]methanone]
4 | 34.2 nM | CC(c1ccnc(Nc2nc3ccc(-c4cc(OCC(F)(F)C(F)(F)F)ncn4)cc3[nH]2)c1)N1CCN(C(=O)[C@@H]2CC2(F)F)CC1 (single isomer, unassigned) [Example 166.05, ((1RS)-2,2-difluorocyclopropyl)(4-{(1R or 1S)-1-[2-({6-[6-(2,2,3,3,3-pentafluoropropoxy)pyrimidin-4-yl]-1H-benzimidazol-2-yl}amino)pyridin-4-yl]ethyl}piperazin-1-yl)methanone]
5 | 11.6 nM | CC(c1ccnc(Nc2nc3ccc(-c4cnn(CC5CC(F)(F)C5)c4)cc3[nH]2)c1)N1CCN(C(=O)CC(F)(F)F)CC1 (single isomer, unassigned) [Example 169.02, 1-{4-[(1R or 1S)-1-{2-[(6-{1-[(3,3-difluorocyclobutyl)methyl]-1H-pyrazol-4-yl}-1H-benzimidazol-2-yl)amino]pyridin-4-yl}ethyl]piperazin-1-yl}-3,3,3-trifluoropropan-1-one]
6 | 16.6 nM | CC(c1ccnc(Nc2nc3ccc(-c4cnn(CC5CC(F)(F)C5)c4)cc3[nH]2)c1)N1CCN(C(=O)C2CC2)CC1 (single isomer, unassigned) [Example 169.03, cyclopropyl{4-[(1R or 1S)-1-{2-[(6-{1-[(3,3-difluorocyclobutyl)methyl]-1H-pyrazol-4-yl}-1H-benzimidazol-2-yl)amino]pyridin-4-yl}ethyl]piperazin-1-yl}methanone]
7 | 5.21 nM | CC(c1ccnc(Nc2nc3ccc(-c4cnn(C[C@@H]5CC5(Cl)Cl)c4)cc3[nH]2)c1)N1CCN(C(=O)CC(F)(F)F)CC1 (single isomer, unassigned) [Example 170.02, 1-{4-[(1R or 1S)-1-(2-{[6-(1-{[(1RS)-2,2-dichlorocyclopropyl]methyl}-1H-pyrazol-4-yl)-1H-benzimidazol-2-yl]amino}pyridin-4-yl)ethyl]piperazin-1-yl}-3,3,3-trifluoropropan-1-one]
8 | 5.95 nM | CC(c1ccnc(Nc2nc3ccc(-c4cnn(CC5CCC5)c4)c(F)c3[nH]2)c1)N1CCN(C(=O)CC(F)(F)F)CC1 (single isomer, unassigned) [Example 171.02, 1-(4-{(1R or 1S)-1-[2-({6-[1-(cyclobutylmethyl)-1H-pyrazol-4-yl]-7-fluoro-1H-benzimidazol-2-yl}amino)pyridin-4-yl]ethyl}piperazin-1-yl)-3,3,3-trifluoropropan-1-one]
9 | 2.85 nM | CC(c1ccnc(Nc2nc3ccc(-c4cnn(CC5CCC5)c4)c(F)c3[nH]2)c1)N1CCN(C(=O)C2CC2)CC1 (single isomer, unassigned) [Example 171.03, (4-{(1R or 1S)-1-[2-({6-[1-(cyclobutylmethyl)-1H-pyrazol-4-yl]-7-fluoro-1H-benzimidazol-2-yl}amino)pyridin-4-yl]ethyl}piperazin-1-yl)(cyclopropyl)methanone]
10 | 39.8 nM | Cc1cc(-c2ccc3nc(Nc4cc(C(C)N5CCN(C(=O)OC(C)(C)C)CC5)ccn4)[nH]c3c2F)ncn1 (single isomer, unassigned) [Example 172.01, tert-butyl 4-[(1R or 1S)-1-(2-{[7-fluoro-6-(6-methylpyrimidin-4-yl)-1H-benzimidazol-2-yl]amino}pyridin-4-yl)ethyl]piperazine-1-carboxylate]
11 | 12.1 nM | Cc1cc(-c2ccc3nc(Nc4cc(C(C)N5CCN(C(=O)CC(F)(F)F)CC5)ccn4)[nH]c3c2F)ncn1 (single isomer, unassigned) [Example 172.02, 3,3,3-trifluoro-1-{4-[(1R or 1S)-1-(2-{[7-fluoro-6-(6-methylpyrimidin-4-yl)-1H-benzimidazol-2-yl]amino}pyridin-4-yl)ethyl)piperazin-1-yl}propan-1-one]
12 | 15 nM | Cc1cc(-c2ccc3nc(Nc4cc(C(C)N5CCN(C(=O)C6CC6)CC5)ccn4)[nH]c3c2F)ncn1 (single isomer, unassigned) [Example 172.03, cyclopropyl{4-[(1R or 1S)-1-(2-{[7-fluoro-6-(6-methylpyrimidin-4-yl)-1H-benzimidazol-2-yl]amino}pyridin-4-yl)ethyl]piperazin-1-yl}methanone]
13 | 20.9 nM | Cc1cc(-c2ccc3nc(Nc4cc(C(C)N5CCN(C(=O)C6(C(F)(F)F)CC6)CC5)ccn4)[nH]c3c2F)ncn1 (single isomer, unassigned) [Example 172.04, {4-[(1R or 1S)-1-(2-{[7-fluoro-6-(6-methylpyrimidin-4-yl)-1H-benzimidazol-2-yl]amino}pyridin-4-yl)ethyl]piperazin-1-yl}[1-(trifluoromethyl)cyclopropyl]methanone]
14 | 396 nM | CC(c1ccnc(Nc2nc3ccc(-c4cc(C(F)(F)F)ncn4)c(F)c3[nH]2)c1)N1CCN(C(=O)OC(C)(C)C)CC1 (single isomer, unassigned) [Example 173.01, tert-butyl 4-{(1R or 1S)-1-[2-({7-fluoro-6-[6-(trifluoromethyl)pyrimidin-4-yl]-1H-benzimidazol-2-yl}amino)pyridin-4-yl]ethyl}piperazine-1-carboxylate]
15 | 77.1 nM | CC(c1ccnc(Nc2nc3ccc(-c4cc(C(F)(F)F)ncn4)c(F)c3[nH]2)c1)N1CCN(C(=O)CC(F)(F)F)CC1 (single isomer, unassigned) [Example 173.02, 3,3,3-trifluoro-1-(4-{(1R or 1S)-1-[2-({7-fluoro-6-[6-(trifluoromethyl)pyrimidin-4-yl]-1H-benzimidazol-2-yl}amino)pyridin-4-yl]ethyl}piperazin-1-yl)propan-1-one]
16 | 50.6 nM | CC(c1ccnc(Nc2nc3ccc(-c4cc(C(F)(F)F)ncn4)c(F)c3[nH]2)c1)N1CCN(C(=O)C2CC2)CC1 (single isomer, unassigned) [Example 173.03, cyclopropyl(4-{(1R or 1S)-1-[2-({7-fluoro-6-[6-(trifluoromethyl)pyrimidin-4-yl]-1H-benzimidazol-2-yl}amino)pyridin-4-yl]ethyl}piperazin-1-yl)methanone]
